One substance from patent EP3389689B1, “ACTIVE INGREDIENTS FOR TOPICAL APPLICATION” (priority 2015, dated 2021) can be followed below.

Assay [1] concerns genes involved in collagen fiber maturation. As to the kind of experiment: Gene-expression analysis, summary statement in words. In kind it is cell-based, human. To be noted: result in words; fibroblasts, 0.01%, 24hrs. The protocol: (§1) Normal human dermal fibroblasts at passage 7 from a donor were cultured in DMEM with L-glutamine 2mM, Penicillin 50U/ml-Streptomycin 50ug/ml and 10% FCS in a 5% CO2 atmosphere at 37°C. After equilibration of cell in 1% FCS for 24hrs the respective peptides H-(beta-Ala)-Pro-Dab-NH-benzyl [CAS 823202-99-9], respectively N-palmitoyl-Gly-His-Lys [147732-56-7] / N-palmitoyl-Gly-Gln-Pro-Arg [221227-05-0] (2:1) diluted in growth medium to a concentration of 0.01% were added and the cells were incubated for an additional 24hrs. At the end of incubation cells were washed in PBS and immediately frozen at -80°C. Total RNA was extracted using NucleoSpin RNA Plus kit (Macherey-Nagel) according to supplier's instructions. cDNA was synthesized by reverse transcription of total RNA using Transcriptor Reverse Transcriptase (Roche). PCR was performed on a LightCycler device (Roche Molecular Systems Inc.) according to manufacturer's instructions. Raw data were analyzed using Microsoft Excel.

The subject of assay [2] is PCOLCE. As to the kind of experiment: Gene-expression analysis (PCR) in normal human dermal fibroblasts. In kind it is cell-based. To be noted: peptide 0.01% in growth medium, timepoint 24hrs. As for the experimental part:
as §1

The subject of assay [3] is LOXL2. The description is as above. Particulars: peptide 0.01% in growth medium, timepoint 24hrs. Format: cell-based. The protocol:
as §1

The test system of assay [4] is PLOD3. Described as above. Format: cell-based. To be noted: peptide 0.01% in growth medium, timepoint 24hrs. As for the experimental part:
as §1

Assay [5] concerns ADAMTS2. The description is as above. Format: cell-based. Particulars: peptide 0.01% in growth medium, timepoint 24hrs. As for the experimental part: as §1

For “N-palmitoyl-Gly-His-Lys [147732-56-7] / N-palmitoyl-Gly-Gln-Pro-Arg [221227-05-0] (2:1)”, in assay [1], the “up-regulation of genes involved in collagen fiber maturation” value is “only up-regulates LOXL2 and much less PLOD3”. The “gene expression PCOLCE” value in assay [2] is reported as 94%. In addition, the “gene expression LOXL2” value in assay [3] is listed as 292%. Further, the “gene expression PLOD3” value in assay [4] was found to be 163%. Also, in assay [5], the “gene expression ADAMTS2” value came to 105%.
